Patent publication US5424424A, “Tartaric acid derivatives of substituted dibenzoxazepine compounds, pharmaceutical compositions and methods of use” (G. D. Searle & Co., priority 1993, dated 1995)
Counter-ions that a name gives are not always drawn.

Tests used:
[1] = system: prostaglandin E2-induced contractions of segments of guinea pig ileum; assay: Prostaglandin (PGE) Antagonism Assay in guinea pig ileum; assay type: tissue-based, Male albino guinea pigs; conditions: dose ratio of prostaglandin E2 EC50 values; initial concentration 3 micromolar test compound, 37° C., incubated thirty minutes
Protocol: In order to determine the effectiveness of several of the compounds of the present invention ("test compounds") as prostaglandin E2 antagonists,a prostaglandin antagonism assay was conducted, as described below, to determine the ability of these compounds to inhibit prostaglandin E2 -induced contractions of segments of guinea pig ileum.
Male albino guinea pigs weighing 200 to 500 grams were sacrificed by cervical dislocation. The ilea were then quickly removed from the guinea pigs and placed in a modified Tyrode solution, a solution which is known to those skilled in the art, containing one-half of the usual amount of magnesium ions.
Segments of ileum about 2 cm long were then cut and mounted in a 10 mL tissue bath containing the modified Tyrode solution. The solution was maintained at 37° C. and aerated with a gaseous mixture of 95% oxygen and 5% carbon dioxide. Data for a control prostaglandin E2 dose response curve plotting concentration of prostaglandin E2 versus the intensity of contractions, detected isotonically, was then obtained by experimentally adjusting the dose of the prostaglandin E2 being injected into the tissue bath, in a manner known by those of skill in the art.
Solutions or suspensions containing an initial concentration (3 micromolar) of a test compound in modified Tyrode solution ("test solutions/suspensions") were then separately substituted for the control bath solution. Each test solution/suspension was then kept in constant contact with the ileum tissue, except for brief periods to drain the bath in preparation for rinsing with fresh test solution/suspension. A second prostaglandin E2 dose response curve was then generated for prostaglandin E2 in the presence of a test compound.
A control dose response curve is produced in isolated segments of guinea pig ileum mounted in an automated apparatus with six concentrations of prostaglandin E2. A solution or suspension of test compound is substituted for the control bathing solution and is incubated for thirty minutes. An additional prostaglandin E2 dose response curve is then performed in the presence of the test compound. A dose ratio is calculated from the EC50 values obtained from duplicate replications on each concentration of the test compound.
A dose ratio of EC50 doses was calculated from the results of each test in a manner known by those of skill in the art, and described above.
The compounds of the present invention which were tested in this assay, and for which results are presented in Table 1, correspond to the particular examples specified in Table 1.

mice = assay: Writhing Assay (phenylbenzoquinone-induced writhing, analgesia); assay type: in vivo, Charles River male albino mice; conditions: 30 mg per kilogram, intragastric, 30 minutes before PBQ i.p.; analgesia = writhes equal to or less than one-half the median of saline control
Excerpt: The Writhing Assay is one of the most widely-used experimental procedures for measuring the analgesic activity of different narcotic and nonnarcotic analgesic agents, and involves the continuous, chemically-induced pain of visceral origin to an animal, such as a mouse or rat. [Gyires et al., Arch. int. Pharmacodyn, 267, 131-140 (984); C. Vander Wende et al., Fed. Proc., 15, 494 (1956); Koster et al., Fed. Proc., 18, 412 (1959); and Witken et al., J. Pharmacol. exp. Ther., 133, 400-408 (1961).] Chemicals which may be used to induce this pain include phenylbenzoquinone (PBQ) and acetic acid. As a result of the chemical irritation to the animal, a characteristic stretching and writhing of the animal (dorsiflexion of the animal's back, extension of its hindlimbs and the strong contraction of its abdominal musculature) will generally occur. […] Drugs which reduce the number of writhes of the animal appear to restore the normal nociceptive threshold of the animal.
Charles River male albino mice, weighing 20 to 30 grams, were used in this assay.
Thirty minutes after intragastric administration to ten mice of 30 mg per kilogram of body weight of a compound of the present invention ("test compound"), […] per 10 g of body weight of a 0.025% w/v solution of PB was injected intraperitoneally into each mouse. Ten mice which were given saline in place of a test compound of the invention were used as a control group.
Five minutes later, each mouse was individually placed into a glass beaker for observation, and the number of writhes occurring during the following ten-minute period was counted.
A test compound was considered to have produced analgesia in a mouse if, in accordance with the conditions set forth above, and under the test criteria employed for this assay, after the administration of 30 mg per kilogram of body weight of a compound of the present invention to the mouse, the number of writhes elicited by a mouse injected with PBQ was equal to, or less than, one-half the median number of writhes recorded for the saline-treated control group of mice that day, as described by Taber in "Predictive Value of Analgesic Assays in Mice and Rats," Advances in Biochemical Psychopharmacology, 8, 191 (1974).
The results for the particular compounds of the present invention analyzed in this assay, and discussed in the examples identified below which correspond thereto, are presented in Table 1 hereinbelow as fractions under the heading "WRITHING ASSAY." The fractions indicate the number of mice out of ten in which a test compound produced analgesia.

SMILES: CC(=O)O[C@@H](C(=O)NCc1ccncc1)[C@@H](OC(C)=O)C(=O)N1Cc2ccccc2Oc2ccc(Cl)cc21 [Example 7, αR,βR-Bis(acetyloxy)-8-chloro-γ-oxo-N-(4-pyridinylmethyl)dibenz[b,f][1,4]oxazepine-10(11H)-butanamide, hydrochloride]
- PGE ANTAGONISM IN GUINEA PIG ILEUM Dose Ratio [1]: 1.2
- WRITHING ASSAY I.G.: number of mice out of ten in which a test compound produced analgesia (mice): 8/10

SMILES: CC(=O)O[C@H](C(=O)NCc1ccccn1)[C@H](OC(C)=O)C(=O)N1Cc2ccccc2Oc2ccc(Cl)cc21 [Example 5, αS,βS-Bis(acetyloxy)-8-chloro-γ-oxo-N-(2-pyridinylmethyl)dibenz[b,f][1,4]oxazepine-10(11H)-butanamide, hydrochloride]
- PGE ANTAGONISM IN GUINEA PIG ILEUM Dose Ratio [1]: 1.7
- WRITHING ASSAY I.G.: number of mice out of ten in which a test compound produced analgesia (mice): 5/10

SMILES: CC(=O)O[C@H](C(=O)NCc1ccncc1)[C@H](OC(C)=O)C(=O)N1Cc2ccccc2Oc2ccc(Cl)cc21 [Example 3, αS,βS-Bis(acetyloxy)-8-chloro-γ-oxo-N-(4-pyridinylmethyl)-dibenz[b,f][1,4]oxazepine-10(11H)-butanamide, hydrochloride]
- PGE ANTAGONISM IN GUINEA PIG ILEUM Dose Ratio [1]: 1.3
- WRITHING ASSAY I.G.: number of mice out of ten in which a test compound produced analgesia (mice): 5/10

SMILES: CC(=O)O[C@H](C(=O)NCCN(C)C)[C@H](OC(C)=O)C(=O)N1Cc2ccccc2Oc2ccc(Cl)cc21 [Example 2, αS,βS-Bis(acetyloxy)-8-chloro-N-[2-(dimethylamino)ethyl]-γ-oxodibenz[b,f][1,4]oxazepine-10(11H)-butanamide, monohydrochloride]
- WRITHING ASSAY I.G.: number of mice out of ten in which a test compound produced analgesia (mice): 0/10

SMILES: CC(=O)O[C@@H](C(=O)NCc1ccccn1)[C@@H](OC(C)=O)C(=O)N1Cc2ccccc2Oc2ccc(Cl)cc21 [Example 9, αR,βR-Bis(acetyloxy)-8-chloro-γ-oxo-N-(2-pyridinylmethyl)dibenz[b,f][1,4]oxazepine-10(11H)-butanamide, hydrochloride]
- PGE ANTAGONISM IN GUINEA PIG ILEUM Dose Ratio [1]: 1.1
- WRITHING ASSAY I.G.: number of mice out of ten in which a test compound produced analgesia (mice): 5/10

SMILES: CC(=O)O[C@@H](C(=O)NCc1cccnc1)[C@@H](OC(C)=O)C(=O)N1Cc2ccccc2Oc2ccc(Cl)cc21 [Example 8, αR,βR-Bis(acetyloxy)-8-chloro-γ-oxo-N-(3-pyridinylmethyl)dibenz[b,f][1,4]oxazepine-10(11H)]-butanamide, hydrochloride]
- PGE ANTAGONISM IN GUINEA PIG ILEUM Dose Ratio [1]: 2.4
- WRITHING ASSAY I.G.: number of mice out of ten in which a test compound produced analgesia (mice): 6/10

SMILES: CC(=O)O[C@H](C(=O)NCc1cccnc1)[C@H](OC(C)=O)C(=O)N1Cc2ccccc2Oc2ccc(Cl)cc21 [Example 4, αS,βS-Bis(acetyloxy)-8-chloro-γ-oxo-N-(3-pyridinylmethyl)-dibenz[b,f][1,4]oxazepine-10(11H)-butanamide, hydrochloride]
- PGE ANTAGONISM IN GUINEA PIG ILEUM Dose Ratio [1]: 0.74
- WRITHING ASSAY I.G.: number of mice out of ten in which a test compound produced analgesia (mice): 9/10
